Test results as given in US6653307B2, “1-aryl-4-oxo-1,4-dihydro-3-quinolinecarboxamides as antiviral agents” (Pharmacia & Upjohn Company, priority 2000, dated 2003).

Assays:
HCMV polymerase = target: T1, HCMV polymerase (Human cytomegalovirus, UniProt P08546); test: HCMV polymerase scintillation proximity assay (SPA); assay type: biochemical; settings: 3H-dTTP incorporation
T1 construct: made in house; host or cells: recombinant baculovirus-infected SF-9 cells
Method: (§1) The HCMV polymerase assay is performed using a scintillation proximity assay (SPA) as described in several references, such as N.D. Cook, et al., Pharmaceutical Manufacturing International, pages 49-53 (1992); K. Takeuchi, Laboratory Practice, September issue (1992); U.S. Pat. No. 4,568,649 (1986); which are incorporated by reference herein. Reactions are performed in 96-well plates. The assay is conducted in 100 μl volume with 5.4 mM HEPES (pH 7.5), 11.7 mM KCl, 4.5 mM MgCl2, 0.36 mg/ml BSA, and 90 nM ^3H-dTTP. Assays are run with and without CHAPS, (3-[(3-cholamidopropyl)-dimethylammonio]-1-propane-sulfonate) at a final concentration of 2 mM. HCMV polymerase is diluted in enzyme dilution buffer containing 50% glycerol, 250 mM NaCl, 10 mM HEPES (pH 7.5), 100 μg/ml BSA, and 0.01% sodium azide. The HCMV polymerase, which is expressed in recombinant baculovirus-infected SF-9 cells and purified according to literature procedures, is added at 10% (or 10 μl) of the final reaction volume, i.e., […]. Compounds are diluted in 50% DMSO and 10 μl are added to each well. Control wells contain an equivalent concentration of DMSO. Unless noted otherwise, reactions are initiated via the addition of 6 nM biotinylated poly(dA)-oligo(dT) template/primer to reaction mixtures containing the enzyme, substrate, and compounds of interest. Plates are incubated in a 25 C or 37 C H2O bath and terminated via the addition of 40 μl/reaction of 0.5 M EDTA (pH 8) per well. Reactions are terminated within the time-frame during which substrate incorporation is linear and varied depending upon the enzyme and conditions used, i.e., 30 min. for HCMV polymerase. Ten μl of streptavidin-SPA beads (20 mg/ml in PBS/10% glycerol) are added following termination of the reaction. Plates are incubated 10 min. at 37 C, then equilibrated to room temperature, and counted on a Packard Topcount. Linear regressions are performed and IC50's are calculated using computer software. A modified version of the above HCMV polymerase assay is performed as described above, but with the following changes: Compounds are diluted in 100% DMSO until final dilution into assay buffer. In the previous assay, compounds are diluted in 50% DMSO. 4.5 mM dithiotherotol (DTT) is added to the polymerase buffer.

HSV polymerase = HSV polymerase (Human herpesvirus 1, UniProt P04293); test: HSV polymerase assay (Table 1); assay type: biochemical
Method: [Worded in the source for another target; this target is reported under the same test.] as §1

VZV polymerase = VZV polymerase (Varicella-zoster virus, UniProt P09252); test: VZV polymerase assay (Table 1); assay type: biochemical
Method: [Worded in the source for another target; this target is reported under the same test.] as §1

Chain of VZV polymerase (P09252 whole entry): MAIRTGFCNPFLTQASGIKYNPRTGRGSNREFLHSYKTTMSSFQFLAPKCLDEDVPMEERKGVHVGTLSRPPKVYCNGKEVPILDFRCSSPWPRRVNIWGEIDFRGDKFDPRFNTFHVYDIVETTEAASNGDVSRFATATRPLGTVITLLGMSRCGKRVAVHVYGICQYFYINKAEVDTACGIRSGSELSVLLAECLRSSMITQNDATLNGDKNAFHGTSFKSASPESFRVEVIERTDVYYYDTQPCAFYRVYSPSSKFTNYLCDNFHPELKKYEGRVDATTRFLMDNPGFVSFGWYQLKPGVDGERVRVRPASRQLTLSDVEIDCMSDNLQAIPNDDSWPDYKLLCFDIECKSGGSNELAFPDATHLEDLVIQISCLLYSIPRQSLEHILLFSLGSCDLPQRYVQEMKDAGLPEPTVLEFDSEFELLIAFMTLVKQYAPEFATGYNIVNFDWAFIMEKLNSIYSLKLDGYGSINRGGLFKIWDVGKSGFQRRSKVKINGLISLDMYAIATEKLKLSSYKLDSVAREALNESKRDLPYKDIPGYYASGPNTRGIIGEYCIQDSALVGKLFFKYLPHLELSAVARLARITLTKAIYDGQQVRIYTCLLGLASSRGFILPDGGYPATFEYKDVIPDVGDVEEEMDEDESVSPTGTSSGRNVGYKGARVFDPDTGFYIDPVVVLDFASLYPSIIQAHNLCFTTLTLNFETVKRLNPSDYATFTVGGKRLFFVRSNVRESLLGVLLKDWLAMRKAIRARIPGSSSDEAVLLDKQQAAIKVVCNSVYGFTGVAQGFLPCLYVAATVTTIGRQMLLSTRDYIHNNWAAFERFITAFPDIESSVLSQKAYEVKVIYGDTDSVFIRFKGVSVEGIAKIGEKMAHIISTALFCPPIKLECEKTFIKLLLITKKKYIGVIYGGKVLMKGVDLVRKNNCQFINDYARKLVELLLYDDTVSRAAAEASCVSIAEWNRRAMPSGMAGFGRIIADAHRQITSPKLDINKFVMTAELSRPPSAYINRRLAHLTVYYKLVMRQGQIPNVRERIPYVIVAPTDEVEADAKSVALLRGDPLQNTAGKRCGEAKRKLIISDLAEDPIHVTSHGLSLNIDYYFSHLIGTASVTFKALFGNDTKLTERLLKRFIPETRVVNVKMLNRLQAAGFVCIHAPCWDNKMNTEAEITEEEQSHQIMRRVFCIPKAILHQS
T1 sequence (P08546 whole entry): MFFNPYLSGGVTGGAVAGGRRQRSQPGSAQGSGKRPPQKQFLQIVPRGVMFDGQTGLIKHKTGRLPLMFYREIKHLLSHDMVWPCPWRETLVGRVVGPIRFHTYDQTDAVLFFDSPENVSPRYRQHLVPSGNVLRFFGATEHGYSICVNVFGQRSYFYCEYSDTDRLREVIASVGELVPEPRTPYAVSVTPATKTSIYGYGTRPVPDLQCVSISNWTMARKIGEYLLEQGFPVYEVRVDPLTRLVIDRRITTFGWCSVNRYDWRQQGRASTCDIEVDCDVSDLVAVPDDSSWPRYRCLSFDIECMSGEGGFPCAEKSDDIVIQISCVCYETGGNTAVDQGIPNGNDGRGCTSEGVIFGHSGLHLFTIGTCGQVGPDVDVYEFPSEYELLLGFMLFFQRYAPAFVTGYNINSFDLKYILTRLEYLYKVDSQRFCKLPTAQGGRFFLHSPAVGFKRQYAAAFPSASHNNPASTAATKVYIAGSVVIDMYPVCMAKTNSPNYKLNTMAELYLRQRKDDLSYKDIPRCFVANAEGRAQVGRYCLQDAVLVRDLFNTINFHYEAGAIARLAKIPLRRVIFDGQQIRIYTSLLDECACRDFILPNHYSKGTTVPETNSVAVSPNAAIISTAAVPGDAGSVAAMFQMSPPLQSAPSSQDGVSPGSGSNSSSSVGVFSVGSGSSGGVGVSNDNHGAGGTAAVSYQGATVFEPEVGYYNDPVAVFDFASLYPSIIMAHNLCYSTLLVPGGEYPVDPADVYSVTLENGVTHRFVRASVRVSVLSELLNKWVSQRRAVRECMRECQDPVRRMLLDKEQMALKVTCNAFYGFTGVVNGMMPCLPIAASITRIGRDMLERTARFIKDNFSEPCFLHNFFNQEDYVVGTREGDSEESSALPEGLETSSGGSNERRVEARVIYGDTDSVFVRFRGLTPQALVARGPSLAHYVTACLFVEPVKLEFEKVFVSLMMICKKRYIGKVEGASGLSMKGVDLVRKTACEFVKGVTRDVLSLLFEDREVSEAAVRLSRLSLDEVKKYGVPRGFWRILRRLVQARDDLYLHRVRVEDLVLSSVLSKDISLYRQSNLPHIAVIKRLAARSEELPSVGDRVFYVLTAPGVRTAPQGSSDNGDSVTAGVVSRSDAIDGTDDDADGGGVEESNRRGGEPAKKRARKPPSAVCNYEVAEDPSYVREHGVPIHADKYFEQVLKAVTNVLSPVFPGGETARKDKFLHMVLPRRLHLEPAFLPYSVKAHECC
Chain of HSV polymerase (P04293 whole entry): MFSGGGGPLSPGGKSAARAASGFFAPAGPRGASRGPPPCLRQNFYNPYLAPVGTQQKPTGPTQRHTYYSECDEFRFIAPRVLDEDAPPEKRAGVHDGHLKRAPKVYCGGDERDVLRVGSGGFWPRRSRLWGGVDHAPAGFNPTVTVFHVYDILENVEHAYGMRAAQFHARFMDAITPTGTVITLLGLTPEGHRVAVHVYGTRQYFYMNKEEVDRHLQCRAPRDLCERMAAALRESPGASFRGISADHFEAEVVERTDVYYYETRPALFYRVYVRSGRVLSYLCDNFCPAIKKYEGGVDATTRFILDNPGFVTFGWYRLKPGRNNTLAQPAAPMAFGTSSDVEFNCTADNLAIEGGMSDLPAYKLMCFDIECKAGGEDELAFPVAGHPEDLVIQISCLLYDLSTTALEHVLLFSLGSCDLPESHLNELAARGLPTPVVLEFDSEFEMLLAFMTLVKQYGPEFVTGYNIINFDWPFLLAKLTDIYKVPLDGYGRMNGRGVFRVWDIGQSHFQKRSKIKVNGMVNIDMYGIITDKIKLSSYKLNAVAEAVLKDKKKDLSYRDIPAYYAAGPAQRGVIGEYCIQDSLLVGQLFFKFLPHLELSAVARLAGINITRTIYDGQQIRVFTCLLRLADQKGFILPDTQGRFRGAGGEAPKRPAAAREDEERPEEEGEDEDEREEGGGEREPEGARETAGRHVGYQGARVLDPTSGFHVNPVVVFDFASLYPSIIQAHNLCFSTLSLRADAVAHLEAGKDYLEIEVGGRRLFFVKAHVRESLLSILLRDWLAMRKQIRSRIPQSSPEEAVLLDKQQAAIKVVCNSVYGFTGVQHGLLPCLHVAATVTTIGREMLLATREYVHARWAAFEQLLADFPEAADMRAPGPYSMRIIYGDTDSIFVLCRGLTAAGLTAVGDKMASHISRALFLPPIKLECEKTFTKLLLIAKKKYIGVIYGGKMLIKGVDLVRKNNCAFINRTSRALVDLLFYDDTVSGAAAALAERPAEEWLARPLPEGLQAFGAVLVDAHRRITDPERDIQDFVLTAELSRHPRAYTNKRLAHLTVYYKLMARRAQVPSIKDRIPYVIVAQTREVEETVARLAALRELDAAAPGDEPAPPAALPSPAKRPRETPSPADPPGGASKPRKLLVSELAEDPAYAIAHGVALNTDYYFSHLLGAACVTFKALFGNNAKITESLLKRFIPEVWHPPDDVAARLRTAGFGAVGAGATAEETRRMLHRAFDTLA

O=C(NCc1ccc(Cl)cc1)c1cn(-c2cccc(CCCO)c2)c2ccc(CN3CCOCC3)cc2c1=O [Example 25, N-(4-Chlorobenzyl)-1-[3-(3-hydroxypropyl)phenyl]-6-(4-morpholinylmethyl)-4-oxo-1,4-dihydro-3-quinolinecarboxamide]
IC50 (HCMV polymerase): 1.08 µM
IC50 (HSV polymerase): 0.98 µM
IC50 (VZV polymerase): 0.48 µM
melting point: 115 to 118 °C
